Consider seven molecules from US20230159467A1, “NOVEL COMPOUNDS USEFUL IN THE TREATMENT AND/OR PREVENTION OF A DISEASE, DISORDER OR CONDITION ASSOCIATED WITH ANGIOTENSIN II” (Vicore Pharma AB, priority 2020, published 2023).

One data set concerns the target T1, human AT1R (Homo sapiens, UniProt P30556).
T1 construct: host or cells: HEK-293
T1 sequence (P30556 1-359): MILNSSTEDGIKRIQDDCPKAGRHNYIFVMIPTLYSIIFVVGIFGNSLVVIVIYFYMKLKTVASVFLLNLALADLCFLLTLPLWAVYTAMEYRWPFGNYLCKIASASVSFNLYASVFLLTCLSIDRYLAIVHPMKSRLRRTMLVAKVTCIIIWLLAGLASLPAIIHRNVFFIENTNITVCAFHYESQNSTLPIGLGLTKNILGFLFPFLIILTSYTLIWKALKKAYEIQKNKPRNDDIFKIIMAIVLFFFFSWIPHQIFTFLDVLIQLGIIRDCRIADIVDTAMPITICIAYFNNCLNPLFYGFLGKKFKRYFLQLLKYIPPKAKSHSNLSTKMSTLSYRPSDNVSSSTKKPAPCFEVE
Format: binding. The conditions noted are these: HEK-293 cell membranes.

The nature of data set [1]: Stability in human liver microsomes. The settings on record: half-life. In kind it is in vitro ADME. As to the method: Stability in liver microsomes. Human, mouse and rat liver microsomes were used to assess the metabolic stability for the compounds. Metabolic stability was determined in 0.5 mg/mL human, mouse or rat liver microsomes at a compound concentration of 1 μM in 100 mM potassium phosphate buffer (pH 7.4) in a total incubation volume of 500 μL by Eurofins. The assay matrix was: human liver microsomes: mixed gender and pool of 50, rat liver microsomes: male, Sprague-Dawley, pool of 100 or more and mouse liver microsomes: male,CD-1, pool of 250 or more. Final microsomal protein concentration: 0.1mg/mL. The test concentration was 0.1 μM with 0.01% DMSO, 0.25% acetonitrile and 0.25% methanol by default. […] The reaction was initiated by adding NADPH-generating system and was incubated for 0, 15, 30, 45, and 60 min. The reaction was stopped by transferring the incubation mixture to acetonitrile/methanol. Samples were then mixed and centrifuged. Four reference compounds were tested in each assay. Propranolol and imipramine are relatively stable, whereas verapamil and terfenadine are readily metabolized inhuman liver microsomes. Samples were analyzed by HPLC-MS/MS using selected reaction monitoring. The HPLC system consisted of a binary LC pump with autosampler, a C-18 column, and a gradient. Peak areas corresponding to the test compound were recorded. The compound remaining was calculated by comparing the peak area at each time point to time zero. The half-life was calculated from the slope of the initial linear range of the logarithmic curve of compound remaining (%) vs. time, assuming first order kinetics. In addition, the intrinsic clearance (Clint) was calculated.^19,20

A further data set deals with T2, human AT2R (Homo sapiens, UniProt P50052).
T2 construct: host or cells: HEK-293
T2 sequence (P50052 1-363): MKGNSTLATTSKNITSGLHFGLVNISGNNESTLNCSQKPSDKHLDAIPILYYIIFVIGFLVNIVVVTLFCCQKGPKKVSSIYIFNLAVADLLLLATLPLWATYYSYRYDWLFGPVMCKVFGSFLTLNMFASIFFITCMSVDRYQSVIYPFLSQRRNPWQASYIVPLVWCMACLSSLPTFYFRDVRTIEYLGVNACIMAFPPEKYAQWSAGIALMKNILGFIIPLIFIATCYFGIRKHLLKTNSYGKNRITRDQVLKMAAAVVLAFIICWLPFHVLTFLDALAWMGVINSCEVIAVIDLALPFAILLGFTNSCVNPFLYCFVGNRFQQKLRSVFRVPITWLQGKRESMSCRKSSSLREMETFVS
Format: binding. The settings on record: HEK-293 cell membranes.

Another data set has as its target CYP2C9 (Homo sapiens, UniProt P11712). The experiment in a line: CYP450 inhibition assay, pooled human liver microsomes, diclofenac substrate. The settings on record: both, human, pooled human liver microsomes, pH 7.4, probe diclofenac.
Data set [2] deals with CYP3A. Nature of the data set: CYP450 inhibition assay, pooled human liver microsomes, midazolam substrate. The settings on record: both, human, pooled human liver microsomes, pH 7.4, probe midazolam.
Another data set deals with T3, CYP2C8 (Homo sapiens, UniProt P10632).
T3 sequence (P10632 1-490): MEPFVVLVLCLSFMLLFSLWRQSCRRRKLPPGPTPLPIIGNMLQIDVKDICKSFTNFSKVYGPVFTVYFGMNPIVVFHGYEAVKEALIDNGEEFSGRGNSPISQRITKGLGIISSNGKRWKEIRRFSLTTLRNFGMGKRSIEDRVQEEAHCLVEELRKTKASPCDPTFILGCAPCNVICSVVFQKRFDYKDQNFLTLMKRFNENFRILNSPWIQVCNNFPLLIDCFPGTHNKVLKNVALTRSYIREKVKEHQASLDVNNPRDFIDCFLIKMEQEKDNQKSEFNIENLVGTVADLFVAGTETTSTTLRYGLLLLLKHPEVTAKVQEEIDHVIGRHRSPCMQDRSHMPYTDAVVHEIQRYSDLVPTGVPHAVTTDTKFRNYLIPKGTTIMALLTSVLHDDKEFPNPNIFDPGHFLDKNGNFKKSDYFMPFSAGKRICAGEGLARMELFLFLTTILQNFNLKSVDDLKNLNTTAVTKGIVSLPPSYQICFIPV
Nature of the data set: CYP450 inhibition assay, pooled human liver microsomes, amodiaquine substrate. The conditions noted are these: both, human, pooled human liver microsomes, pH 7.4, probe amodiaquine.

The target of a further data set is CYP2D6 (Homo sapiens, UniProt P10635). Nature of the data set: CYP450 inhibition assay, pooled human liver microsomes, dextromethorphan substrate. The settings on record: both, human, pooled human liver microsomes, pH 7.4, probe dextromethorphan.
Data set [3] deals with CYP3A. The experiment in a line: CYP450 inhibition assay, pooled human liver microsomes, testosterone substrate. The settings on record: both, human, pooled human liver microsomes, pH 7.4, probe testosterone, CYP 450 Inhibition CYP3A testosterone, at 10 μM.
Another data set concerns the target T4, CYP1A (Homo sapiens, UniProt P05177).
T4 sequence (P05177 1-516): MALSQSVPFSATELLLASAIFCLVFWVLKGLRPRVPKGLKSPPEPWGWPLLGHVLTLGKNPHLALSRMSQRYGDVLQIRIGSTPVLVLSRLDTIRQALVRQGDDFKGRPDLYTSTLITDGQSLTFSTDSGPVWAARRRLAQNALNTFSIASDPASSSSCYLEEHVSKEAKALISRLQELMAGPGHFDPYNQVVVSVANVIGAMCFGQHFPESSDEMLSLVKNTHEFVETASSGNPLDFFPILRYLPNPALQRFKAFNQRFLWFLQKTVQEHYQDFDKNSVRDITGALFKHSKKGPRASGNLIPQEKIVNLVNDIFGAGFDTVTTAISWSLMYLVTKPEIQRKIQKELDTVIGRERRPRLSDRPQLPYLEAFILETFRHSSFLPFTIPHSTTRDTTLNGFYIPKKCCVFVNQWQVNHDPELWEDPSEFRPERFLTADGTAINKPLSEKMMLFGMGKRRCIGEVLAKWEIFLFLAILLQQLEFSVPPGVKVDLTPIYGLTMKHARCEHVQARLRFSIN
Nature of the data set: CYP450 inhibition assay, pooled human liver microsomes, phenacetin substrate. The settings on record: both, human, pooled human liver microsomes, pH 7.4, probe phenacetin.

The target in another data set is T5, CYP2B6 (Homo sapiens, UniProt P20813).
T5 sequence (P20813 1-491): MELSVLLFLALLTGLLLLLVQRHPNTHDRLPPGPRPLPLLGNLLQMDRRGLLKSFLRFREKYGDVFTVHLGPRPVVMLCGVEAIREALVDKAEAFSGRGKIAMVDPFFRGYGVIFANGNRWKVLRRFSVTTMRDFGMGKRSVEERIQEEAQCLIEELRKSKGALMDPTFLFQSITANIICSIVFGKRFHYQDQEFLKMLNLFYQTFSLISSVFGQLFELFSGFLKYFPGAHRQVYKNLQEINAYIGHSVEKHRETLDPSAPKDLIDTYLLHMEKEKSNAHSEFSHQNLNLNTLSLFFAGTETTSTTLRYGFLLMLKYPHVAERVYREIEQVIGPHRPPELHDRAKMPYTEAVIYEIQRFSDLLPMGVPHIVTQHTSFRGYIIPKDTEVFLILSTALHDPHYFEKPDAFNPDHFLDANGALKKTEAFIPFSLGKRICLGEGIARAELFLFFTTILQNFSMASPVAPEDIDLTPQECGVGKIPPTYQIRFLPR
Nature of the data set: CYP450 inhibition assay, pooled human liver microsomes, bupropion substrate. The conditions noted are these: both, human, pooled human liver microsomes, pH 7.4, probe bupropion.

The target in the next data set is CYP2C19 (Homo sapiens, UniProt P33261). Nature of the data set: CYP450 inhibition assay, pooled human liver microsomes, omeprazole substrate. The settings on record: both, human, pooled human liver microsomes, pH 7.4, probe omeprazole.
Sequence of CYP2C19 (P33261 whole entry): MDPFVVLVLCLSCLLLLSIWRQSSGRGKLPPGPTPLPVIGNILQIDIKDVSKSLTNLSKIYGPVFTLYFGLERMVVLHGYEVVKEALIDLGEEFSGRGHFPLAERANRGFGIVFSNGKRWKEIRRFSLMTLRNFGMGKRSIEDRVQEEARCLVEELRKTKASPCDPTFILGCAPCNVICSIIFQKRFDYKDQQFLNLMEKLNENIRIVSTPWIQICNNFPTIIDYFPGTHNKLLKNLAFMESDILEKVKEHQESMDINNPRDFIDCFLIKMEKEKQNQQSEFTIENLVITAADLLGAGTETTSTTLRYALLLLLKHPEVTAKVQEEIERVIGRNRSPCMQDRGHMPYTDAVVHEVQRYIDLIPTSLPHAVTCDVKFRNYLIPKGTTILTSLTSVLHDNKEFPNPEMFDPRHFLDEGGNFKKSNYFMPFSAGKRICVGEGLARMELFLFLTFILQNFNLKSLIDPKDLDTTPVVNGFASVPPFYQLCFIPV

Sequence of CYP2D6 (P10635 whole entry): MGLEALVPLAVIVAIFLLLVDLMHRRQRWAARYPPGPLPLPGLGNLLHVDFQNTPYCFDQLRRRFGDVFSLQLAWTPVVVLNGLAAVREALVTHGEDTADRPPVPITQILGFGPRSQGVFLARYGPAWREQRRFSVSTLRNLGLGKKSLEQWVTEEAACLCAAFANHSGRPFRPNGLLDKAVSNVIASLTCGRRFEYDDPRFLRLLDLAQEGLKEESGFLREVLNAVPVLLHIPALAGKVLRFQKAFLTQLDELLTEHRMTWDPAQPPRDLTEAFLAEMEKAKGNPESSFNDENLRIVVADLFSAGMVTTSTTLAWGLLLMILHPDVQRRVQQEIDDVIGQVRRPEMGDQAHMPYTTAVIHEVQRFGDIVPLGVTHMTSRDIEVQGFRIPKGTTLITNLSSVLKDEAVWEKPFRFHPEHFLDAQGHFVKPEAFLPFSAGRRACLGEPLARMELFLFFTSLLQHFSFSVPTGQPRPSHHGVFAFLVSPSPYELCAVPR
Sequence of CYP2C9 (P11712 whole entry): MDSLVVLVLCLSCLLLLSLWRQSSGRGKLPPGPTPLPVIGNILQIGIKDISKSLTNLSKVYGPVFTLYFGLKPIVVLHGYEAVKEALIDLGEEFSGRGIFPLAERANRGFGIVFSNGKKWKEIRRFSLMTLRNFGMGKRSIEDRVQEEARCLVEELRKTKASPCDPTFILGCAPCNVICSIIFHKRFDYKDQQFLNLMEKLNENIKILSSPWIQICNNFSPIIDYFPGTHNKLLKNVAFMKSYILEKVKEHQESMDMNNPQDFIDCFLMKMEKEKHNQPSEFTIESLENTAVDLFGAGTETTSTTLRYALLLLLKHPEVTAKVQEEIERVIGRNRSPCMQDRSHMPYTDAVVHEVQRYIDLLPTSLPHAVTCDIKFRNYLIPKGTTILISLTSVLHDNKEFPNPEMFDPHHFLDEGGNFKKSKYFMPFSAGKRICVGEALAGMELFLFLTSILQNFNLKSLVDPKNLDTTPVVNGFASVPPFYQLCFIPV

For the molecule `CCCCOC(=O)NS(=O)(=O)c1sc(CC(C)C)nc1-c1ccc(Cn2ccnc2C(C)(C)O)cc1` [Example 17A, Butyl ((4-(4-((2-(2-hydroxypropan-2-yl)-1H-imidazol-1-yl)methyl)phenyl)-2-isobutylthiazol-5-yl)sulfonyl)carbamate], the values for the Ki at human AT1R and at human AT2R were 1000 nM and 12 nM, respectively. Further, the “Stability in liver microsomes HLM” value in [1] is greater than 60 min.

Take `CCCCOC(=O)NS(=O)(=O)c1sc(CC(C)C)nc1-c1ccc(Cn2ccnc2-c2nccs2)cc1` [Example 16, Butyl ((2-isobutyl-4-(4-((2-(thiazol-2-yl)-1H-imidazol-1-yl)methyl)phenyl)thiazol-5-yl)su Ifonyl)carbamate]: the Ki was found to be 1000 nM on human AT1R and 41 nM at human AT2R. Besides, the “Stability in liver microsomes HLM” value in [1] is recorded as greater than 60 min.

Take `COC(=O)NS(=O)(=O)c1sc(CC(C)C)nc1-c1ccc(Cn2ccnc2C(C)C)cc1` [Example 20, Methyl ((2-isobutyl-4-(4-((2-isopropyl-1H-imidazol-1-yl)methyl)phenyl)thiazol-5-yl)sulfonyl)carbamate]: the “Stability in liver microsomes HLM” value in data set [1] is recorded as greater than 60 min. In addition, affinity on human AT2R was put at a Ki of 27 nM.

`CCCCOC(=O)NS(=O)(=O)c1sc(CC(C)C)nc1-c1ccc(Cn2ccnc2C(C)C)cc1` [Example 18, Butyl ((2-isobutyl-4-(4-((2-isopropyl-1H-imidazol-1-yl)methyl)phenyl)thiazol-5-yl)sulfonyl)carbamate]: the inhibitory constant (Ki) at human AT1R was determined as 1000 nM; at human AT2R it was 5.8 nM. In data set [1], the “Stability in liver microsomes HLM” value was greater than 60 min.

On to `COC(=O)NS(=O)(=O)c1ccc(CC(C)C)cc1-c1ccc(Cn2ccnc2C(C)(C)F)cc1` [Example 34, Methyl ((4′-((2-(2-fluoropropan-2-yl)-1H-imidazol-1-yl)methyl)-5-isobutyl-[1,1′-biphenyl]-2-yl)sulfonyl)carbamate], for which the figures for the Ki at human AT1R and at human AT2R were 15000 nM and 2.3 nM, respectively. The inhibition at 10 min, 10 µM against CYP2C9 is 42.2%; with CYP3A [2], 9.98%; against CYP2C8 it was 70.3%; on CYP2D6 it was 16.2%; in the data set with CYP3A [3], 18.1%; against CYP1A, -5.97%. Besides, the inhibition at 10 min, 10 µM at CYP2B6 came out at 6.9%; against CYP2C19, 43.3%.

`CCCCOC(=O)NS(=O)(=O)c1ccc(CC(C)C)cc1-c1ccc(Cn2ccnc2C(C)(C)F)cc1` [Example 32, Butyl ((4′-((2-(2-fluoropropan-2-yl)-1H-imidazol-1-yl)methyl)-5-isobutyl-[1,1′-biphenyl]-2-yl)sulfonyl)carbamate]: the inhibition at 10 min, 10 µM against CYP2C9 was 43.7%; in the data set with CYP3A [2] it was -11.7%; against CYP2C8, 66.5%; against CYP2D6 it was 17.1%; in the data set with CYP3A [3] it was 8.43%; against CYP1A, -3.04%. The inhibition at 10 min, 10 µM worked out at 29.8% at CYP2B6 and 31% against CYP2C19.

As for `CCCc1ccc(S(=O)(=O)[N-]C(=O)OC)c(-c2ccc(Cn3ccnc3C(C)(C)O)cc2)c1.[K+]` [Example 30B, Potassium (methoxycarbonyl) ((4′-((2-(2-hydroxypropan-2-yl)-1H-imidazol-1-yl)methyl)-5-propyl-[1,1′-biphenyl]-2-yl)sulfonyl)amide], the Ki stood at 1000 nM on human AT1R and 4.6 nM on human AT2R. Moreover, the “Stability in liver microsomes HLM” value in data set [1] is listed as greater than 60 min.
